Reference: PMC12196347, “Evaluating Triazole-Substituted Pyrrolopyrimidines as CSF1R Inhibitors” (Molecules, 2025)
Where two headings read alike, the source gives them in different places.

Assays:
[1] = system: CSF1R Ba/F3 cells; assay: Cell viability assay, Ba/F3 cells engineered to be dependent on CSF1R; type: cell-based; settings: Mus musculus, BaF3, Ba/F3 cells dependent on CSF1R, duplicate measurements
[2] = system: IL-3 dependent Ba/F3 cell line (CSF1R independent); assay: Control assay for cellular toxicity, Ba/F3 cells dependent on IL-3; type: cell-based; settings: Mus musculus, BaF3; Ba/F3 cells dependent on IL-3, control for cellular toxicity
[3] = target: CSF1R (Homo sapiens, UniProt P07333); assay: CSF1R enzymatic IC50, Z-LYTE assay platform; type: biochemical
[4] = target: T1, cKIT kinase (Homo sapiens, UniProt P10721); assay: KIT inhibition (KD), TR-FRET tracer displacement; type: binding; settings: kinase tracer 236, anti-GST antibody Eu-conjugate, read-out: KIT enz. KD
T1 construct: purchased Carna Biosciences

[5] = Human liver microsome intrinsic clearance, Phase I; type: in vitro ADME; settings: in vitro intrinsic clearance
[6] = Mouse liver microsome intrinsic clearance, Phase I; type: in vitro ADME; settings: in vitro intrinsic clearance
[7] = system: panel of 49 kinases; assay: Selectivity score from the kinase panel; type: biochemical; settings: 1000 nM
[8] = target: T2, BLK (Homo sapiens, UniProt P51451); assay: Kinase panel profiling: BLK; type: biochemical; settings: ATP equal to KM
T2 construct: purchased Thermo Fisher Scientific (Invitrogen) SelectScreen (Z'-LYTE)

[9] = target: T3, BTK (Homo sapiens, UniProt Q06187); assay: Kinase panel profiling: BTK; type: biochemical; settings: ATP equal to KM
T3 construct: purchased Thermo Fisher Scientific (Invitrogen) SelectScreen (Z'-LYTE)

[10] = target: T4, CDK1/cyclin B (Homo sapiens, UniProt P06493); assay: Kinase panel profiling: CDK1/cyclin B; type: biochemical; settings: ATP equal to KM
T4 construct: purchased Thermo Fisher Scientific (Invitrogen) SelectScreen (Z'-LYTE)

[11] = target: T5, CHEK1 (CHK1) (Homo sapiens, UniProt O14757); assay: Kinase panel profiling: CHEK1; type: biochemical; settings: ATP equal to KM
T5 construct: purchased Thermo Fisher Scientific (Invitrogen) SelectScreen (Z'-LYTE)
T5 sequence (O14757 1-476): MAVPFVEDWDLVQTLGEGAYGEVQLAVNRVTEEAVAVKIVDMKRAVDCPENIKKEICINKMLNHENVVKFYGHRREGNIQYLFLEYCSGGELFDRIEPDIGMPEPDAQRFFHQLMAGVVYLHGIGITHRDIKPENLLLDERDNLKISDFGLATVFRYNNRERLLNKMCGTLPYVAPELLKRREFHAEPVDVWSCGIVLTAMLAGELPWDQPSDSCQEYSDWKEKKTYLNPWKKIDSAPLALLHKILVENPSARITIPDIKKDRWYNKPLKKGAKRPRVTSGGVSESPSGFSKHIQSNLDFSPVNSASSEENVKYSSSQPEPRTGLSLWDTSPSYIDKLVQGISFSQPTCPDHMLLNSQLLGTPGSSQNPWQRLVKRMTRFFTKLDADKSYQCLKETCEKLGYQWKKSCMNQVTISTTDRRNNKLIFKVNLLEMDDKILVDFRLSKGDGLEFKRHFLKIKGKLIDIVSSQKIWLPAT

[12] = target: T6, CSF1R (FMS) (Homo sapiens, UniProt P07333); assay: Kinase panel profiling: CSF1R; type: biochemical; settings: ATP equal to KM
T6 construct: purchased Thermo Fisher Scientific (Invitrogen) SelectScreen (Z'-LYTE)

[13] = target: T7, EGFR (ErbB1) (Homo sapiens, UniProt P00533); assay: Kinase panel profiling: EGFR; type: biochemical; settings: ATP equal to KM
T7 construct: purchased Thermo Fisher Scientific (Invitrogen) SelectScreen (Z'-LYTE)

[14] = target: T8, ERBB2 (HER2) (Homo sapiens, UniProt P04626); assay: Kinase panel profiling: ERBB2; type: biochemical; settings: ATP equal to KM
T8 construct: purchased Thermo Fisher Scientific (Invitrogen) SelectScreen (Z'-LYTE)

[15] = target: T9, FGFR1 (Homo sapiens, UniProt P11362); assay: Kinase panel profiling: FGFR1; type: biochemical; settings: ATP equal to KM
T9 construct: purchased Thermo Fisher Scientific (Invitrogen) SelectScreen (Z'-LYTE)

[16] = target: T10, FLT1 (VEGFR1) (Homo sapiens, UniProt P17948); assay: Kinase panel profiling: FLT1; type: biochemical; settings: ATP equal to KM
T10 construct: purchased Thermo Fisher Scientific (Invitrogen) SelectScreen (Z'-LYTE)

[17] = target: T11, FRAP1 (mTOR) (Homo sapiens, UniProt P42345); assay: Kinase panel profiling: FRAP1; type: biochemical; settings: ATP equal to KM
T11 construct: purchased Thermo Fisher Scientific (Invitrogen) SelectScreen (Z'-LYTE)

[18] = target: T12, GSK3B (GSK3 beta) (Homo sapiens, UniProt P49841); assay: Kinase panel profiling: GSK3B; type: biochemical; settings: ATP equal to KM
T12 construct: purchased Thermo Fisher Scientific (Invitrogen) SelectScreen (Z'-LYTE)

[19] = target: T13, JAK1 (Homo sapiens, UniProt P23458); assay: Kinase panel profiling: JAK1; type: biochemical; settings: ATP equal to KM
T13 construct: purchased Thermo Fisher Scientific (Invitrogen) SelectScreen (Z'-LYTE)

[20] = target: T14, KIT (Homo sapiens, UniProt P10721); assay: Kinase panel profiling: KIT; type: biochemical; settings: ATP equal to KM
T14 construct: purchased Thermo Fisher Scientific (Invitrogen) SelectScreen (Z'-LYTE)

[21] = target: T15, LTK (TYK1) (Homo sapiens, UniProt P29376); assay: Kinase panel profiling: LTK; type: biochemical; settings: ATP equal to KM
T15 construct: purchased Thermo Fisher Scientific (Invitrogen) SelectScreen (Z'-LYTE)

[22] = target: T16, PAK1 (Homo sapiens, UniProt Q13153); assay: Kinase panel profiling: PAK1; type: biochemical; settings: ATP equal to KM
T16 construct: purchased Thermo Fisher Scientific (Invitrogen) SelectScreen (Z'-LYTE)

[23] = target: RET (Homo sapiens, UniProt P07949); assay: Kinase panel profiling: RET; type: biochemical; settings: ATP equal to KM
[24] = target: SRC (Homo sapiens, UniProt P12931); assay: Kinase panel profiling: SRC; type: biochemical; settings: ATP equal to KM
[25] = target: TEK (Tie2) (Homo sapiens, UniProt Q02763); assay: Kinase panel profiling: TEK; type: biochemical; settings: ATP equal to KM
[26] = target: YES1 (Homo sapiens, UniProt P07947); assay: Kinase panel profiling: YES1; type: biochemical; settings: ATP equal to KM
[27] = 1000 nM test concentration, read-out: Average inhibition (%)
[28] = 1000 nM, first data point, read-out: Inhibition (%)
[29] = 1000 nM, second data point, read-out: Inhibition (%)

T14 sequence (P10721 26-976): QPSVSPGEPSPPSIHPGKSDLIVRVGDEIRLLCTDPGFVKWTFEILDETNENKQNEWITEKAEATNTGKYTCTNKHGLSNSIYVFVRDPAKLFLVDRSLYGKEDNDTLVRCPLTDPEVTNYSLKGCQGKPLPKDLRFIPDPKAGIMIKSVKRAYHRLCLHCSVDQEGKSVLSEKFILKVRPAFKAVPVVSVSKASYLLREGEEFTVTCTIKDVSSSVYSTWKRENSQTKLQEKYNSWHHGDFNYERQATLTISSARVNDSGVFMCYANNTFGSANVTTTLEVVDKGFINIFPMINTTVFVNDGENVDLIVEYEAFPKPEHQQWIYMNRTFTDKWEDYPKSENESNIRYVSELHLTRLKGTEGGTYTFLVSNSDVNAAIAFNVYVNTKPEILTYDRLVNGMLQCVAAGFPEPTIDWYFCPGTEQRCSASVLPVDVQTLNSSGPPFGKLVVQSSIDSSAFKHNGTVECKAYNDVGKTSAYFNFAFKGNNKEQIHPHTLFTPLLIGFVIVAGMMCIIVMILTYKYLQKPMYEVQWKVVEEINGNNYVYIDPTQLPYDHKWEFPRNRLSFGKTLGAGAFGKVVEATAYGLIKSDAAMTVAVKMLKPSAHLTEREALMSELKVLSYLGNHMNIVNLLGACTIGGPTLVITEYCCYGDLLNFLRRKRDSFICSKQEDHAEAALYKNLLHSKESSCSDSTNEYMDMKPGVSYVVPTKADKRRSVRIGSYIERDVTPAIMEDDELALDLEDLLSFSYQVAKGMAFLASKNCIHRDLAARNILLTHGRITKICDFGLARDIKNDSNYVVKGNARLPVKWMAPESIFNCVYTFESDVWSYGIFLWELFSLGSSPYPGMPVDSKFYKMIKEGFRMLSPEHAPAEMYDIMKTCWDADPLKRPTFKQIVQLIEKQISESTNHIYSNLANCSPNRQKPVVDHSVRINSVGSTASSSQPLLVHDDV
T16 sequence (Q13153 whole entry): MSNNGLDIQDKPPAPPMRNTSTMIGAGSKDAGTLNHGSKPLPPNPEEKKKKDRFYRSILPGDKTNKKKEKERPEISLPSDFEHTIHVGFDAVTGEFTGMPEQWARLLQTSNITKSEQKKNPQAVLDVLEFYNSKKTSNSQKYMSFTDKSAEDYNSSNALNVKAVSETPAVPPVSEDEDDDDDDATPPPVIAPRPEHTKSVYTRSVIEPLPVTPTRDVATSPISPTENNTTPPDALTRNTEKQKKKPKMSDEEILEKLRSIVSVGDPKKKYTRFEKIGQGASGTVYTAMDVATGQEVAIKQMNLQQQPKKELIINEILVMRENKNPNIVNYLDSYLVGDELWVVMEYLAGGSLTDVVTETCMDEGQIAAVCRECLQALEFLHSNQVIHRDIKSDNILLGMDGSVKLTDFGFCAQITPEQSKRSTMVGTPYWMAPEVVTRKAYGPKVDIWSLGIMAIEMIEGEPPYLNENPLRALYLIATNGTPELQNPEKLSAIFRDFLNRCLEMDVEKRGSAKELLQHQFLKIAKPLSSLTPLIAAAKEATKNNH
Sequence of YES1 (P07947 whole entry): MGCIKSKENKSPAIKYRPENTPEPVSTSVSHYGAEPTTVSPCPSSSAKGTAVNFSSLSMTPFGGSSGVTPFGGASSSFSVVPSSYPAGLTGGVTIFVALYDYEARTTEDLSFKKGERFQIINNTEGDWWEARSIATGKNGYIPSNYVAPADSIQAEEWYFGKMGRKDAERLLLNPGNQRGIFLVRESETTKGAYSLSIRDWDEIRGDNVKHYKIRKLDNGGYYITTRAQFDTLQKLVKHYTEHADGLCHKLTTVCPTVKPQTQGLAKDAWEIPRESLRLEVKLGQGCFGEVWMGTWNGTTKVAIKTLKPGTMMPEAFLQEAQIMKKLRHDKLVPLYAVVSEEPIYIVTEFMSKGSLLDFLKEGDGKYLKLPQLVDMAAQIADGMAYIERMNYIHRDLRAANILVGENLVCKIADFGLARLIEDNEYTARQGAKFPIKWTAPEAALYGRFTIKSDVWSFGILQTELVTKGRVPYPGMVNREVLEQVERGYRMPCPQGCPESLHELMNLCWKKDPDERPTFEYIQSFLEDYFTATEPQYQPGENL
Sequence of TEK (Tie2) (Q02763 23-1124): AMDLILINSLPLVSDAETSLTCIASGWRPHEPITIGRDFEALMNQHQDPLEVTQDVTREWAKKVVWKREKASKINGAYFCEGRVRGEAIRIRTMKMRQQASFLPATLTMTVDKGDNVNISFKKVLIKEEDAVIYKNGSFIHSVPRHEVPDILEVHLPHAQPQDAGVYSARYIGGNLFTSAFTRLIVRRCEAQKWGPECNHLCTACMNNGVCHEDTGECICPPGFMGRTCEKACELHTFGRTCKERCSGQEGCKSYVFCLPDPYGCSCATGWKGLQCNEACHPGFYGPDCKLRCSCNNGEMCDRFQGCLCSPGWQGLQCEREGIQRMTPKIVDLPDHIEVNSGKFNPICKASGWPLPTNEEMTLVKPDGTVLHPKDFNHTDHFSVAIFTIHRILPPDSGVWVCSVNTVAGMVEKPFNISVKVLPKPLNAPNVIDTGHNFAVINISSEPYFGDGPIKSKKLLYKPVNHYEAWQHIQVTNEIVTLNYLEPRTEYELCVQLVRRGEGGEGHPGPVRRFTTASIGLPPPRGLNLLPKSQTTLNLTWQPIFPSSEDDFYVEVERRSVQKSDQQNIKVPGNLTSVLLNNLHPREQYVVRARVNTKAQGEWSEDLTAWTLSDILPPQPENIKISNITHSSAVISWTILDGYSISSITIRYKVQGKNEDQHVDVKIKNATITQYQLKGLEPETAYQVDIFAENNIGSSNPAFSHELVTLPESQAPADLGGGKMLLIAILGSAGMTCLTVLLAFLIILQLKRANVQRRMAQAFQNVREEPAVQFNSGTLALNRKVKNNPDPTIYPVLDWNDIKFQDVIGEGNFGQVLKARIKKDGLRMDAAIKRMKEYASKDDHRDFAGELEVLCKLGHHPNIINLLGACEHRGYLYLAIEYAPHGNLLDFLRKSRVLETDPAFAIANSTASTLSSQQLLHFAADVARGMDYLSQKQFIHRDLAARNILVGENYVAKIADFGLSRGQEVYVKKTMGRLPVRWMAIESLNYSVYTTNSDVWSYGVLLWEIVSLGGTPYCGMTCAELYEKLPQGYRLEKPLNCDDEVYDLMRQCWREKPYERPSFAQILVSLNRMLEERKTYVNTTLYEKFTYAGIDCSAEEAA
Sequence of RET (P07949 29-1114): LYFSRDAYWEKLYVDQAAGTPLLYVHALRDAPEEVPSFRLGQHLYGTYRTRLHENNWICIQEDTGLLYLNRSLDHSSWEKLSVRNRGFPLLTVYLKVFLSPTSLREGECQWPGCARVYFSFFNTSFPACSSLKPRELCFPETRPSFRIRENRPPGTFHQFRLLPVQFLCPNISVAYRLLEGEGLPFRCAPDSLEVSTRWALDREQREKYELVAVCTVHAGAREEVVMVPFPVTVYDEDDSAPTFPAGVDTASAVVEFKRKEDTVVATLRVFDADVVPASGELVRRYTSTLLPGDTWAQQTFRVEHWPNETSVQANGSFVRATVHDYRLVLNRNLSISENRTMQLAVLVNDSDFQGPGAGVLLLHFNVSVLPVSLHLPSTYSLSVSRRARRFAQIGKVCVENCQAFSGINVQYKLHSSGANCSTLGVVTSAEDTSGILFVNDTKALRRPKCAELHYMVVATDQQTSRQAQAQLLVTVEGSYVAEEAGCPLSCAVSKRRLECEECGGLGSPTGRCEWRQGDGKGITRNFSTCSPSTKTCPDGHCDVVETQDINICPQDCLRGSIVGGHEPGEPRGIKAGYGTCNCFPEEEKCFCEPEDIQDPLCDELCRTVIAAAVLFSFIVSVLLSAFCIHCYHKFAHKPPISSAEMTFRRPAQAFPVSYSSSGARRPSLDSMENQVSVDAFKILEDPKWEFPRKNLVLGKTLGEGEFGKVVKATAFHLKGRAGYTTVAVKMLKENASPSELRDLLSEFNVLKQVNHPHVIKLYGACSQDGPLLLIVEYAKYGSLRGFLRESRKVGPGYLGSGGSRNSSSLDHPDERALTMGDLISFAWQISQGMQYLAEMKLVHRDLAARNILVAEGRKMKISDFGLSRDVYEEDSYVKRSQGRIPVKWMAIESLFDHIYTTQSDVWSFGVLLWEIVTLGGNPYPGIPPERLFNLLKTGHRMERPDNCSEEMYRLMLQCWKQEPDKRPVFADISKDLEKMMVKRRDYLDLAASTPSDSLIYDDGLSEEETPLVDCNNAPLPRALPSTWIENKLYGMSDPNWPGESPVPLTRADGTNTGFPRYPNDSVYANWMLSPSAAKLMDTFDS
T9 sequence (P11362 22-822): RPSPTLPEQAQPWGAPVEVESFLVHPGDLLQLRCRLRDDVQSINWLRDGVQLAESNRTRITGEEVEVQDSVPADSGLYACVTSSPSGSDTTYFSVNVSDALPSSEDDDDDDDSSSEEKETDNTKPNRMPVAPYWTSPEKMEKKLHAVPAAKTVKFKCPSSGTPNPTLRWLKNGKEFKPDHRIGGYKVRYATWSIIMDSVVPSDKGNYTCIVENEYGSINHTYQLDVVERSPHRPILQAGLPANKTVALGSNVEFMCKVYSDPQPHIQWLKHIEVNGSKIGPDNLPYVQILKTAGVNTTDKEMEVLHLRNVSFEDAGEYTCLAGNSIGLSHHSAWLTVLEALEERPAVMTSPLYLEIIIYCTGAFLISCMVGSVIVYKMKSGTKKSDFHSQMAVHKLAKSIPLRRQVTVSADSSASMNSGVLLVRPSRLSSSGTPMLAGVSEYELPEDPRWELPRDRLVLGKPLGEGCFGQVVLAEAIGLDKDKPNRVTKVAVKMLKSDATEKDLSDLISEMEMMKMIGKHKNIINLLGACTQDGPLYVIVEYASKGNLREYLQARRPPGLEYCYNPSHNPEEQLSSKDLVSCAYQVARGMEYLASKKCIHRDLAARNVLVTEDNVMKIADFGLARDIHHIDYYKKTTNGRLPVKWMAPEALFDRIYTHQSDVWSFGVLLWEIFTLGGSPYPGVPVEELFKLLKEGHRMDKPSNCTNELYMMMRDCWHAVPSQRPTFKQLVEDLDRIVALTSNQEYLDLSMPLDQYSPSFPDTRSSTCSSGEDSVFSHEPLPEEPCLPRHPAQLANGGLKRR
T1 sequence (P10721 26-976): as the sequence (P10721 26-976) above

What does the source list for Cc1cccc(CN(C)c2ncnc3[nH]c(-c4cn(Cc5cccnc5)nn4)cc23)c1 [Compound 27a, N-Methyl-N-(3-methylbenzyl)-6-(1-(pyridin-3-ylmethyl)-1H-1,2,3-triazol-4-yl)-7H-pyrrolo[2,3-d]pyrimidin-4-amine]?
IC50 [1]: 300 nM; IC50 [2]: > 10000 nM; Hill coefficient ([3]; Z-LYTE CSF1R IC50 curve): 0.903; IC50 ([3]; Z-LYTE, 10-point titrations in duplicates, ATP equal to KM ca. 10 µM, read-out: CSF1R enz. IC50): 0.4 ± 0.2 nM; Kd [4]: 793 nM; HLM [5]: 53.7 µL/min/mg; MLM [6]: 295 µL/min/mg; selectivity score (S-score) ([7]; 30% inhibition as threshold): 0.51; selectivity score (S-score) ([7]; 50% inhibition as threshold): 0.35; inhibition at 1 µM [8, 27]: 69%; inhibition at 1 µM [8, 28]: 69%; inhibition at 1 µM [9, 27]: 46%; inhibition at 1 µM [9, 28]: 50%; inhibition at 1 µM [9, 29]: 42%; inhibition at 1 µM [10, 27]: 27%; inhibition at 1 µM [10, 28]: 24%; inhibition at 1 µM [10, 29]: 29%; inhibition at 1 µM [11, 27]: 5%; inhibition at 1 µM [11, 28]: 0%; inhibition at 1 µM [11, 29]: 9%; inhibition at 1 µM [12, 27]: 99%; inhibition at 1 µM [12, 28]: 99%; inhibition at 1 µM [13, 27]: 85%; inhibition at 1 µM [13, 28]: 84%; inhibition at 1 µM [13, 29]: 87%; inhibition at 1 µM [14, 27]: 32%; inhibition at 1 µM [14, 28]: 33%; inhibition at 1 µM [14, 29]: 32%; inhibition at 1 µM [15, 27]: 9%; inhibition at 1 µM [15, 28]: 9%; inhibition at 1 µM [15, 29]: 8%; inhibition at 1 µM [16, 27]: 31%; inhibition at 1 µM [16, 28]: 32%; inhibition at 1 µM [16, 29]: 30%; inhibition at 1 µM [17, 27]: -3%; inhibition at 1 µM [17, 28]: -4%; inhibition at 1 µM [17, 29]: -2%; inhibition at 1 µM [18, 27]: 61%; inhibition at 1 µM [18, 28]: 59%; inhibition at 1 µM [18, 29]: 62%; inhibition at 1 µM [19, 27]: 9%; inhibition at 1 µM [19, 28]: 22%; inhibition at 1 µM [19, 29]: -3%; inhibition at 1 µM [20, 27]: 57%; inhibition at 1 µM [20, 28]: 56%; inhibition at 1 µM [20, 29]: 58%; inhibition at 1 µM [21, 27]: 25%; inhibition at 1 µM [21, 28]: 25%; inhibition at 1 µM [22, 27]: 2%; inhibition at 1 µM [22, 28]: 4%; inhibition at 1 µM [22, 29]: 0%; inhibition at 1 µM [23, 27]: 29%; inhibition at 1 µM [23, 28]: 28%; inhibition at 1 µM [23, 29]: 30%; inhibition at 1 µM [24, 27]: 96%; inhibition at 1 µM [24, 28]: 96%; inhibition at 1 µM [24, 29]: 95%; inhibition at 1 µM [25, 27]: 42%; inhibition at 1 µM [25, 28]: 44%; inhibition at 1 µM [25, 29]: 40%; inhibition at 1 µM [26, 27]: 101%; inhibition at 1 µM [26, 28]: 102%; inhibition at 1 µM [26, 29]: 99%
